In PMC10349806 (Nature Communications, 2023):
Residue numbers refer to the chain shown, from its start. Where “and” joins values, the source holds several entries; their conditions need not be identical. Equal values may be shown once.

Columns and labels:
[1] = pKa values of the drugs (literature); format: physicochemical; details: between pH 4.5 and 6.0
PfCRT variant E372A = target: T1, PfCRT variant E372A (Plasmodium falciparum, UniProt Q9N623, A220S/E372A/I356T/K76T/M74I/N326S/N75E/Q271E/R371I); experiment: CQ uptake assay, oocytes expressing E372A; format: cell-based
T1 sequence (Q9N623 1-424 M74I/N75E/K76T/A220S/Q271E/N326S/I356T/R371I/E372A): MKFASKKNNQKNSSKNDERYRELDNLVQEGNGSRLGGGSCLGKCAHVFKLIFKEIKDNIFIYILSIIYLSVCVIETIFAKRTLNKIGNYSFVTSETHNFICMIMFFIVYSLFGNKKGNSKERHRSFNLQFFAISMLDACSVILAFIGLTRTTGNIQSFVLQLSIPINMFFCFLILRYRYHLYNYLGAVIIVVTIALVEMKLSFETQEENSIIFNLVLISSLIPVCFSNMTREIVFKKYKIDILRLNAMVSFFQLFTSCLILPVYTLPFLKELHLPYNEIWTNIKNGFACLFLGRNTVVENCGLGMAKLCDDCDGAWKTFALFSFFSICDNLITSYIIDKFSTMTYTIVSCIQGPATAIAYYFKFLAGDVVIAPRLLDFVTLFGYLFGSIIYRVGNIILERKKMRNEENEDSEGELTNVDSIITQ
Protocol: (§1) Site-directed mutagenesis of PfCRT^Dd2 was performed as described using the megaprimer method with overlap extension[21],[54]. The primer pairs used are listed in Supplementary Table 6. Please note that a codon-optimized and oocyte-adapted version of PfCRT^Dd2 was used[22] (Supplementary Fig. 16). The resulting DNA fragment was cloned into the SP64T expression vector and verified by sequencing.
(§2) Oocytes were obtained as described previously. Briefly, adult (>2 years old) female X. laevis frogs (NASCO) were anesthetized in a cooled solution of ethyl 3-amino benzoate methanesulfonate (0.1%, w/v), followed by a surgical removal of parts of the ovary. The ovary lobes were carefully dissected and small pieces of oocytes were incubated in Ca^2+-free ND96 buffer (96 mM NaCl, 2 mM KCl, 1 mM MgCl2 buffered with 5 mM HEPES/NaOH, pH 7.5) supplemented with collagenase D (0.1%, w/v; Roche), BSA (0.5%, w/v), and 9 mm Na2HPO4 at 18 °C for 14-16 h while gentle shaking. After incubation, the oocytes were carefully washed several times with ND96 buffer (96 mM NaCl, 2 mM KCl, 1.8 mM CaCl2, 1 mM MgCl2 buffered with 5 mM HEPES/NaOH, pH 7.5) supplemented with 100 mg l^−1 gentamycin). Defolliculated and healthy-looking stage V-VI oocytes were manually selected for RNA microinjection. The RNA was generated as following: The codon-optimized sequences of PfCRT variants were cloned into the pSP64T expression vector. After vector linearization using the restriction endonucleases BamHI or SalI (New England Biolabs), transcription was performed using the in vitro SP6 mMessage mMachine Kit (Ambion)[34]. The obtained RNA was kept at −80 °C and diluted with nuclease-free water to a concentration of 0.6 μg μl^−1. Precision-bore glass capillary tubes (3.5-inch glass capillaries; Drummond Scientific Co.) were pulled on a vertical puller (P-87 Flaming/Brown micropipette puller, Sutter Instrument Co.), graduated, and placed on a microinjector (Nanoject II Auto-Nanoliter Injector, Drummond Scientific Co.). 50 nl of nuclease-free water alone (control oocytes) or 50 nl of 0.6 μg μl^−1 RNA were injected under stereomicroscopic control. Injected oocytes were incubated for 46–72 h at 18 °C with twice-daily buffer changes before usage in experiments.
(§3) Drug uptake assays were performed as described previously[21],[22],[24],[34]. […] The direction of radio-labeled drug transport is here from the mostly acidic extracellular solution (pH 4.5 or 6.0, as indicated) into the oocyte cytosol (pH ∼ 7.2), which corresponds to the efflux of drug from the acidic digestive vacuole (pH 5.2) into the parasite cytoplasm (pH 7.2). The topology of PfCRT in the oolemma is such that both the N- and C-terminus face the extracellular milieu[3],[22]. In the parasite, the N- and C-terminus face the lumen of the digestive vacuole. CQ uptake kinetics were performed by incubating oocytes in ND96 buffer adjusted to a pH of 4.5, 5.0, 5.5, or 6.0 and supplemented with 50 nM [^3H]CQ and one of 7 different CQ concentrations (10 µM, 50 µM, 100 µM, 200 µM, 300 µM, 400 µM, 500 µM CQ). The reaction was stopped at the 60 min time point, which is in the linear uptake range[22],[34] (Supplementary Fig. 17). For determination of the amount of drug uptake for each oocyte, the reaction medium was removed and the oocytes were washed three times with 2 ml of ice-cold ND96 buffer. Each oocyte was individually transferred to a scintillation vial containing 5% sodium dodecyl sulfate (200 μl) for lysis. The radioactivity of each sample was measured using a liquid scintillation analyzer Tri-Carb 4910 TR (PerkinElmer). Oocytes that were injected with water instead of RNA were analyzed in parallel, representing the uptake of a drug by diffusion and/or endogenous permeation pathways. The resulting value represents the “background“ level of drug accumulation in oocytes (in-depth discussion in[22]). […]

PfCRT variant H46A = target: T2, PfCRT variant H46A (Plasmodium falciparum, UniProt Q9N623, A220S/H46A/I356T/K76T/M74I/N326S/N75E/Q271E/R371I); experiment: CQ uptake assay, oocytes expressing H46A; format: cell-based
T2 sequence (Q9N623 1-424 H46A/M74I/N75E/K76T/A220S/Q271E/N326S/I356T/R371I): T1 sequence (Q9N623 1-424 M74I/N75E/K76T/A220S/Q271E/N326S/I356T/R371I/E372A) with H46A, A372E
Protocol: as §1, §2, §3

[2] = E372A, 50 µM CQ, 1 h, mean ± SEM
[3] = pH 4.5, single replicates, Fig 1d left
[4] = H46A, 50 µM CQ, 1 h, mean ± SEM

Q: Which molecules being di-protonated [1] does the source give for `CCN(CC)CCCC(C)Nc1ccnc2cc(Cl)ccc12` (centres unmarked) [CQ, chloroquine] here?
A: > 99%

Q: And the “Activity at pH 4.5” value (PfCRT variant E372A; [2])?
A: 2.23 ± 0.25 pmol h-1 oocyte-1

Q: What about the “Activity at pH 6.0” value (PfCRT variant E372A; [2]) of the same compound?
A: 4.71 ± 0.40 pmol h-1 oocyte-1

Q: What about the R-value (PfCRT variant E372A; E372A, CQ transport at pH 4.5 / pH 6.0) of the same compound?
A: 0.49 ± 0.08 and 0.49

Q: What about the “E372A transport activity pH 4.5” value (PfCRT variant E372A; pH 4.5, individual replicates (Fig 6a)) of the same compound?
A: 3.05 pmol oocyte-1 h-1 and 1.75 pmol oocyte-1 h-1 and 2.16 pmol oocyte-1 h-1 and 1.95 pmol oocyte-1 h-1

Q: And the “E3723A transport activity pH 4.5” value (PfCRT variant E372A; [3])?
A: 3.05 pmol oocyte-1 h-1 and 1.75 pmol oocyte-1 h-1 and 2.16 pmol oocyte-1 h-1 and 1.95 pmol oocyte-1 h-1

Q: What about the “E372A transport activity pH 6.0” value (PfCRT variant E372A; individual replicates (Fig 6a)) of the same compound?
A: 4.02 pmol oocyte-1 h-1 and 4.13 pmol oocyte-1 h-1 and 6.01 pmol oocyte-1 h-1 and 4.68 pmol oocyte-1 h-1

Q: What about the “E372A transport activity pH 6.0” value (PfCRT variant E372A; single replicates, Fig 1d left) of the same compound?
A: 4.02 pmol oocyte-1 h-1 and 4.13 pmol oocyte-1 h-1 and 6.01 pmol oocyte-1 h-1 and 4.68 pmol oocyte-1 h-1

Q: What about the “Activity at pH 4.5” value (PfCRT variant H46A; [4]) of the same compound?
A: 2.03 ± 0.27 pmol h-1 oocyte-1

Q: What about the “Activity at pH 6.0” value (PfCRT variant H46A; [4]) of the same compound?
A: 5.06 ± 0.47 pmol h-1 oocyte-1

Q: And the R-value (PfCRT variant H46A; H46A, CQ transport at pH 4.5 / pH 6.0)?
A: 0.40 ± 0.03

Q: And the “H46A transport activity pH 4.5” value (PfCRT variant H46A; [3])?
A: 2.52 pmol oocyte-1 h-1 and 1.13 pmol oocyte-1 h-1 and 2.13 pmol oocyte-1 h-1 and 2.35 pmol oocyte-1 h-1

Q: What about the “H46A R-value” (PfCRT variant H46A; pH 4.5 vs pH 6.0, Fig 1d left) of the same compound?
A: 0.45 and 0.32 and 0.36

Q: What about the “H46A transport activity pH 6.0” value (PfCRT variant H46A; pH 6.0, single replicates, Fig 1d left) of the same compound?
A: 5.57 pmol oocyte-1 h-1 and 3.48 pmol oocyte-1 h-1 and 5.92 pmol oocyte-1 h-1 and 5.27 pmol oocyte-1 h-1
